Paper PMC9887116, “SDI-118, a novel procognitive SV2A modulator: First-in-human randomized controlled trial including PET/fMRI assessment of target engagement” (Frontiers in Pharmacology, 2023)
Several values for one entry are separate records, joined by “and”; a condition that tells them apart may be missing. Identical values can stand only once.

Experiments:
[1] = 12-lead ECG QT-interval assessment in first-in-human study; type: in vivo, human (healthy male subjects)
Procedure: (§2) Safety and tolerability were assessed by questioning for adverse events (AEs), vital signs measurements (supine and orthostatic), 12-lead ECGs (always acquired in triplicate except during screening and post-study visit), standard lab safety tests on blood and urine samples, and physical and neurological examinations at regular time-points throughout the study.

[2] = cardiovascular safety pharmacology study in dogs; type: in vivo
[3] = test system: animal models of cognitive deficit; assay: animal models of cognitive deficit; type: in vivo; conditions: rodents
From the text: (§1) ([Löscher et al., 2016]). […] ([Lynch et al., 2004]; [Matagne et al., 2008]).

[4] = plasma pharmacokinetics, Part A single ascending dose; type: in vivo, human (healthy male subjects)
Procedure: The study consisted of three parts. […] No stratification was performed.
Blood samples for PK analysis were taken at regular time-points up to approximately 96 h post-dose in Part A and C. During the study, a protocol amendment was approved to extend the PK sampling scheme to include samples up to approximately 144 h post-dose, starting from the fourth dosing period. The rationale for this amendment was a longer than anticipated terminal elimination half-life of SDI-118 as concluded from preliminary PK data of the first three dosing periods. Plasma concentrations of SDI-118 were assayed using a GLP validated UPLC/MS-MS method. This method is linear for a range of concentrations from 0.200 to 500 ng/ml, with a lower limit of quantification (LLOQ) of 0.200 ng/ml. The following PK parameters were estimated: maximum plasma concentration Cmax, time of maximum plasma concentration Tmax, area under the plasma concentration versus time curve AUC, AUC0-last (up to the last quantifiable concentration Clast), AUCinf (extrapolated to infinity), and apparent terminal elimination half-life t½. Dose proportionality of SDI-118 Cmax, AUC0-last, and AUCinf from Part A was calculated based on a mixed-effect power model. Food effect on SDI-118 Cmax, AUC0-last, and AUCinf from Part C was calculated using a 90% confidence interval (CI) on geometric mean ratios (fed/fasted) based on a mixed-effect analysis of variance (ANOVA) with median difference in Tmax with 90% CI. Major interaction was excluded if the 90% CI on AUC and Cmax ratios (fed/fasted) were within the 50%–200% boundaries. The food effect assessment in Part C was performed on a secondary population, i.e. the PK completers set, which excluded one subject who discontinued the study after one dosing period (cfr. infra).

[5] = target: hERG (Homo sapiens, UniProt Q12809); assay: preclinical in vitro hERG inhibition; type: biochemical; conditions: preclinical in vitro studies
[6] = target: T1, SV2A (Homo sapiens, UniProt Q7L0J3); assay: brain SV2A occupancy by [11C]-UCB-J PET and PK/PD Emax model, Part B; type: in vivo, human (healthy male subjects)
T1 construct: from tissue; host or cells: brain of healthy male subjects, in vivo
Procedure: In Part B target occupancy in the brain was measured by PET-scans (GE Signa) with the PET-ligand [^11C]-UCB-J ([Nabulsi et al., 2016]; [Koole et al., 2019]) at three different time points: pre-dose, around Tmax (estimated on data collected in Part A), and approximately 24 h post-dose. [^11C]-UCB-J was administered as an intravenous bolus into the antecubital vein over at least 15 s, followed by saline flush. An arterial line in the radial artery was placed in each subject to collect arterial blood samples to reconstruct a metabolite-corrected arterial plasma input function.
Dynamic PET scans were acquired in 3D list-mode for 90 min. List-mode data were rebinned into […] with a gradually increasing frame duration (6 × 15 s—3 × 30 s—3 × 60 s—2 × 90 s—2 × 3 min—9 × 5 min—3 × 10 min) and corrected for deadtime, randoms, and scatter. To correct for attenuation, a Zero-Echo Time (ZTE) scan was acquired simultaneously with the PET data to generate a subject-specific, MR-based attenuation map. Each frame was reconstructed with an iterative algorithm (OSEM—Ordered Subsets Expectation Maximization, four iterations, 28 subsets), modeling detector response, and using time of flight information (TOF). Each reconstructed frame consisted of 89 slices with a matrix size of 192 × 192, corresponding to an in-plane pixel size of 1.56 mm and a slice separation of 2.78 mm. Finally, smoothing was performed by applying a Gaussian filter (4.5 mm Full Width Half Maximum–FWHM) to each time frame.
SDI-118 SV2A occupancy was estimated globally using a full kinetic one-tissue compartmental modeling approach with an arterial input function (1TCM), and target occupancy was assessed with a Lassen plot using 13 main regions of interest: the overall cortex, the frontal, temporal, parietal and occipital cortex, the insula, the anterior and posterior cingulate cortex, the cerebellum, the striatum, the thalamus, the hippocampus, and the brainstem.
The PK/PD analysis set included all subjects from Part B with at least one available valid combined measurement of PK and PD, who received treatment and experienced no protocol deviations with relevant impact on PK or PD data. The global target occupancy based on the 1TCM method was analyzed as a function of the first PK concentration during the Tmax and 24-h post-dose scans. To estimate the relationship between the observed concentration at the beginning of the PET measurement and the receptor occupancy, a mixed-effect maximal effective concentration (Emax) model with two parameters Emax and half maximal effective concentration (EC50), with a random intercept was used. Parameter estimates, standard errors, and 95% confidence intervals were reported. Predictions from the model were reported with 95% confidence and prediction intervals to inform the required doses to produce these target occupancy values at Tmax and 24-h post-dose.

[7] = test system: SV2B; conditions: relative to SV2A
From the text: as §1

[8] = test system: SV2C; conditions: relative to SV2A
From the text: as §1

[9] = anti-convulsant effects (preclinical); type: in vivo; conditions: despite good brain penetration and target occupancy
From the text: as §1

[10] = set-up: species or system rats; conditions: rat, in vivo
[11] = in vivo
Procedure: The study consisted of three parts. Part A was a double-blind, placebo-controlled (in a 6:2 SDI-118:placebo ratio), single ascending oral dose study performed in 16 subjects equally divided into two cohorts. […] Dose levels of .3, 1, 3, 10, 30, 60, 90 and 120 mg of SDI-118 were set to be administered in an alternating panel design with a minimum washout period of 7 days between subsequent periods. In each period two different sentinel subjects were dosed (in a 1:1 SDI-118:placebo ratio) and followed-up for safety for at least 48 h before the rest of the cohort received the same dose level of the study drug.
as §2

[12] = Emax model excluding 22-h post-dose data of the 1 mg group

T1 sequence (Q7L0J3 whole entry): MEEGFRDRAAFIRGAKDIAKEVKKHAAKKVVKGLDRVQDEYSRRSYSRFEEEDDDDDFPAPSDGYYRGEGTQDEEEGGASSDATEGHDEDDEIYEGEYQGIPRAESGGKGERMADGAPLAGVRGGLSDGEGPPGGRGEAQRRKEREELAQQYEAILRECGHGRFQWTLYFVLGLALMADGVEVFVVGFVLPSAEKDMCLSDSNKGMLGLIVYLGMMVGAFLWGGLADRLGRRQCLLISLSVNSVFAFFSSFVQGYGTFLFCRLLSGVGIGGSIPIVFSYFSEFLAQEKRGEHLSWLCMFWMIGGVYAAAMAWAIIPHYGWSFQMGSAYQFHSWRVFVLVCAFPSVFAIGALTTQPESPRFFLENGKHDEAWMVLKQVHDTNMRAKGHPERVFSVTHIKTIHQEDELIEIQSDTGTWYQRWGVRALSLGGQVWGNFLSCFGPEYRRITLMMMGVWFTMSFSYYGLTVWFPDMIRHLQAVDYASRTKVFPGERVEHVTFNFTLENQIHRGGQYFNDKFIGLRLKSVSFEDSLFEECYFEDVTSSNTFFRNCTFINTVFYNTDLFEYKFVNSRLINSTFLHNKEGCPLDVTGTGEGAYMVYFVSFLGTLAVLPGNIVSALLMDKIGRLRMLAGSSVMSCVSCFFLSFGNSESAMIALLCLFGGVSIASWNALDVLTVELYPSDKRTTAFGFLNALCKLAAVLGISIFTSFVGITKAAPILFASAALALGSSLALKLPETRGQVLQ
Sequence of hERG (Q12809 whole entry): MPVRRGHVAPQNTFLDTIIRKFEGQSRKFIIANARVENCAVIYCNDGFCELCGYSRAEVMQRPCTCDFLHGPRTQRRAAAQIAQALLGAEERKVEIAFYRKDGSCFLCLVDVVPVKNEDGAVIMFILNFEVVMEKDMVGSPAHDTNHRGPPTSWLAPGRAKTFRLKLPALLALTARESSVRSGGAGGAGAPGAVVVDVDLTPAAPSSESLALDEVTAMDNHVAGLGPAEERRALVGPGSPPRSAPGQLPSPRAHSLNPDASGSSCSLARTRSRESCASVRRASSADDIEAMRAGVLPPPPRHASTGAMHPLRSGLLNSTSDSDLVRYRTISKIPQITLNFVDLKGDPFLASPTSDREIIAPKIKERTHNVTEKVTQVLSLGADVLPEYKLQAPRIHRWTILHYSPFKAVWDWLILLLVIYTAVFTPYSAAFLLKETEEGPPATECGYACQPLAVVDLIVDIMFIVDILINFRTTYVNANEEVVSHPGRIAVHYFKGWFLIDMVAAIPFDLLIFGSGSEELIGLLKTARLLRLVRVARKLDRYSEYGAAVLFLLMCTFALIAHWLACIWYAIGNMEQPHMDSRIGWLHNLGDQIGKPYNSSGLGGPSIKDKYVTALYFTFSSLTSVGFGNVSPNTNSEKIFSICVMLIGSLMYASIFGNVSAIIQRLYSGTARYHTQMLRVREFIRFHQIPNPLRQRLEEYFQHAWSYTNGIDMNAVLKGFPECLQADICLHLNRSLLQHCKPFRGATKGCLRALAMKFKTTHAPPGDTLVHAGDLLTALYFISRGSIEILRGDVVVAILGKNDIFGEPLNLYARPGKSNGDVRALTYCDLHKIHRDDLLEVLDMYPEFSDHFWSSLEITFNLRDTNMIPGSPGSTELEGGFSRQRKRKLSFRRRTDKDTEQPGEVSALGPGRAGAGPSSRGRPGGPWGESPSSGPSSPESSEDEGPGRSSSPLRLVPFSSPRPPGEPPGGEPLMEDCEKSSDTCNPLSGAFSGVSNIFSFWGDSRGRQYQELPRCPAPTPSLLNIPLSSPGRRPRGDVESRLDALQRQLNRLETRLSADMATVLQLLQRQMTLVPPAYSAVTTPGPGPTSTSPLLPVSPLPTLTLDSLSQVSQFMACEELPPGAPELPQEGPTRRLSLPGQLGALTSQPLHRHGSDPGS

With O=C1C[C@H](c2cc(F)c(F)c(F)c2)CN1Cn1ncnc1Cl [SDI-118] the “largest observed mean increase from baseline QTcF” value ([1]; 12 h post-dose at 60 mg) was “+6.1 ms”, the single QT-interval value, any subject ([1]; no subject above this value) was no more than 500 ms and the single corrected QT-interval Fridericia (QTcF) value, any subject ([1]; no subject above this value) was no more than 450 ms. For the same compound, the QT-interval prolongation ([1]; single oral doses 0.3-80 mg) was “no QT-interval prolongations were observed”, the “findings in cardiovascular safety pharmacology study” value [2] was “absence of any adverse findings” and the “cognitive effects in animal models of cognitive deficit” value [3] was “showed cognitive enhancing effects”. For the same compound, the “geometric mean AUCinf” value ([4]; 0.3 mg single oral dose) was 120 ng·h/mL, the “geometric mean Cmax” value ([4]; 0.3 mg single oral dose) was 3.42 ng/mL and the “geometric mean AUCinf” value ([4]; 80 mg single oral dose) was 25,500 ng*h/mL. For the same compound, the “geometric mean Cmax” value ([4]; 80 mg single oral dose) was 854 ng/mL, the “deviation from dose proportionality for Cmax” value ([4]; 0.3-80 mg, mixed-effect power model) was “approximately 5%” and the “dose proportionality based on AUC0-last and AUCinf” value ([4]; entire dose range 0.3-80 mg) was “dose-proportional”. For the same compound, the “median Tmax” value ([4]; oral capsule, fasting condition) was 1.5 h, the “potential to inhibit hERG” value [5] was “low potential to inhibit hERG” and the “mean SV2A occupancy” value ([6]; 1 mg oral, approximately 24 h after administration) was roughly 0%. The “mean SV2A occupancy” value ([6]; 1 mg oral, around Tmax (2 h post-dose), 1TC global method) was 23%, the “mean SV2A occupancy” value ([6]; 2 mg oral, approximately 24 h after administration) was 20% and the “mean SV2A occupancy” value ([6]; 2 mg oral, around Tmax, 1TC global method) was 41%. For the same compound, the “predicted mean SV2A occupancy at trough level at steady state” value ([6]; 10 mg once a day, model prediction) was 76%, the “mean SV2A occupancy” value ([6]; 10 mg oral, approximately 24 h after administration) was 48% and the “mean SV2A occupancy” value ([6]; 10 mg oral, around Tmax, 1TC global method) was 69% and ~70%. The “mean SV2A occupancy” value ([6]; 20 mg oral, approximately 24 h after administration) was 61%, the “mean SV2A occupancy” value ([6]; 20 mg oral, around Tmax, 1TC global method (peak occupancy)) was 76% and the mean plasma concentration ([6]; 20 mg oral, around Tmax, Part B) was 159 ± 20.5 ng/mL. The “occupancy as share of predicted maximum” value ([6]; 80 mg dose, predicted) was 96%, the “EC50 of SV2A occupancy (plasma concentration)” value [6, 12] was 0.0282 µg/mL and the “Emax of SV2A occupancy” value [6, 12] was 90.3%. For the same compound, the “plasma level predicted to render ~90% of maximal occupancy” value ([6]; Figure 3) was roughly 200 ng/mL, the “EC50 of plasma concentration-occupancy relationship (Figure 3)” value ([6]; Tmax and 24 h post-dose, excluding 24 h data of 1 mg) was “around 25 ng/ml” and the “EC90 of SV2A occupancy (concentration where 90% of the maximum effect is reached)” value ([6]; mixed-effect Emax model) was 0.245 µg/mL. For the same compound, the “EC50 of SV2A occupancy (plasma concentration)” value ([6]; mixed-effect Emax model, all data, 95% CI 18.4 to 36.3 ng/ml) was 0.0273 µg/mL, the “Emax of SV2A occupancy” value ([6]; mixed-effect Emax model, all data, 95% CI 80.1%-98.4%) was 89.2% and the “occupancy levels at which mild and transient side effects were seen in some individuals” value ([6]; possible target related effect) was greater than 60%. The “selectivity over SV2B” value [7] was “over 1000 fold”, the “selectivity over SV2C” value [8] was “over 100 fold” and the anti-convulsant effects [9] was “without anti-convulsant effects”. The “no observed adverse effect level (NOAEL)” value [10] was 150 mg/kg/day and the “onset time of dizziness, hypersomnia, somnolence after dose administration” value [11] was “up to 4 h”.
